The values below come from PubChem BioAssay (NCI).

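Test compounds were applied to cells in 96-well plates for 48 hours at 5 doses. Here, GI50 denotes the concentration required for 50% inhibition of growth. TGI: concentration producing complete growth inhibition.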 *1 amine or outer side, *2 acyl side, *3 side chain or, on linkers, in order; H or OH if unused. Where a SMILES comes first, the peptide text is derived from it. [ ]: non-standard residue; d: D form. The star is where a group is joined. ξ: configuration not given here. X15 = CCN(CC)c1ccc2cc(N*)c(=O)oc2c1; dIva = CC[C@@](C)(N)C(=O)O; X14 = O=C(OCCN[*:1])[*:2]; Aib = CC(C)(N)C(=O)O; ξP = O=C(O)C1CCCN1; βAla = NCCC(=O)O

What all share (assay): growth of human tumour cells (NCI), 48 h
Test [1] relates to KM12 colon.
Test [2] deals with SK-OV-3 ovarian.
The test system of test [3] is SW-620 colon.
Test [4] deals with A549 NSCLC.
In test [5] the test system is NCI-H23 lung.
For test [6], the system named is SN12C renal.
In test [7] the test system is HCT-15 colon.
The test system of test [8] is SF-539 CNS.
Test [9] deals with NCI-H522 lung.
The subject of test [10] is SNB-19 CNS.

Consider `CC12CC(OC(=O)[C@]1(C)O)[C@@H]([C@]1(O)CC[C@H]3[C@@H]4C[C@H]5O[C@]56[C@@H](O)C=CC(=O)[C@]6(C)[C@H]4CC[C@@]31C)C2` (stereo partly drawn), for which the TGI in [1] was 28.7 µM; in test [2] it was more than 100 µM; in [3], 12.4 µM; in test [4], more than 100 µM; in [5] it was 14.4 µM; in [6], 20.5 µM. Moreover, the TGI in test [7] was 25.3 µM; in test [8], 7.29 µM; in test [9] it was 2.92 µM; in test [10], more than 100 µM.

As to `COc1ccc2c(c1)C(C)Cc1c(Cl)nc(C)nc1N2C` (stereo not drawn), the GI50 in [1] is 0.789 µM; in [2] it was 2.79 µM; in test [3], 2.45 µM; in [4], 3 µM; in test [5], 3.48 µM; in [6], 7.22 µM. Also, the GI50 in test [7] was 1.33 µM; in test [8], 1.68 µM; in test [9], 0.763 µM; in [10] it was 3.48 µM. In addition, the TGI was found to be 11.4 µM in test [1]; 26.7 µM in test [2]; 24.4 µM in test [3]; 24.4 µM in [4]; 37.2 µM in test [5]; 25.1 µM in [6]. For the same compound, the TGI in [7] was 8.05 µM; in test [8], 6.11 µM; in test [9], 5.92 µM; in test [10], 29.5 µM.

Take `FC(F)(F)c1ccc(-c2cnc(Cl)nc2NCc2cc(C(F)(F)F)cc(C(F)(F)F)c2)cc1`: the GI50 in [1] was 3.06 µM; in [2] it was 3.4 µM; in test [3], 3.14 µM; in [4], 2.81 µM; in test [5], 3.28 µM; in test [6], 2.81 µM. In addition, the GI50 was 3.48 µM in test [7], 3.78 µM in test [8], 2.69 µM in [9] and 2.44 µM in test [10]. Also, the TGI in test [1], in test [2], in test [3], in test [4], in [5] and in test [6] was more than 100 µM each time. The TGI in [7] was more than 100 µM; in test [8], more than 100 µM; in [9], 9.86 µM; in test [10], more than 100 µM.

Regarding `CSC1(SC2=NCCN2)SC2(NCCN2)S1`, the TGI was found to be 5.37 µM in [1]; 42 µM in test [2]; 51.6 µM in test [3]; 40.1 µM in test [4]; 33.4 µM in test [5]; 41.4 µM in test [6]. The TGI in [7] came to 41.2 µM; in test [8], 56.5 µM; in test [9] it was 27.1 µM; in test [10] it was 41.9 µM.

With `C/C=C/[C@@H]1OC(=O)C2=C[C@@H](O)[C@@H](/C=C/C)O[C@H]21`, the GI50 is 16.9 µM in [1]; 20.5 µM in [2]; 0.989 µM in [3]; 15.8 µM in [4]; 3.08 µM in [5]; 3.76 µM in test [6]. The GI50 was 2.82 µM in test [7], 1.1 µM in [8], 1.93 µM in test [9] and 16.6 µM in [10]. Also, the TGI in [1] was found to be 38.9 µM; in test [2], 36.6 µM; in test [3], 3.13 µM; in test [4] it was 34 µM; in test [5] it was 23.3 µM; in [6], 12.6 µM. Moreover, the TGI in test [7] was determined as 17.2 µM; in test [8], 3.49 µM; in [10], 33.8 µM.

Turning to `Cc1ccc(Sc2ccc(C)cc2[N+](=O)[O-])c([N+](=O)[O-])c1`, the TGI in [1], in test [2], in test [3], in test [4], in [5] and in test [6] was more than 100 µM throughout. Moreover, the TGI in test [7], in test [8], in test [9] and in test [10] was more than 100 µM each time.

Turning to `COc1cc(C2CC(c3ccc(N(C)C)cc3)=NN2C(C)=O)cc(OC)c1OC` (stereo not drawn), the GI50 was 0.933 µM in test [1]; 5.46 µM in test [2]; 0.928 µM in test [3]; 3.36 µM in test [4]; 4.33 µM in test [5]; 11.3 µM in test [6]. Moreover, the GI50 is 1 µM in test [7], 1.35 µM in test [8] and 1.95 µM in [9]. Also, the TGI in test [1] is more than 52.8 µM; in [2] it was more than 100 µM; in test [3], more than 100 µM; in test [4], more than 100 µM; in test [5] it was more than 67 µM; in test [6], more than 100 µM. The TGI in test [7] is more than 100 µM; in test [8], 5.34 µM; in [9], more than 27.1 µM; in test [10] it was more than 100 µM.

On to `CCN(CC)c1ccc2cc(NC(=O)OCCNC(=O)CCNC(=O)[C@H](CC(C)C)NC(=O)C(C)(C)NC(=O)C(C)(C)NC(=O)[C@H](CC(C)C)NC(=O)CCNC(=O)C(C)(C)NC(=O)[C@H](CC(C)C)NC(=O)CCNC(=O)[C@@](C)(CC)NC(=O)[C@H](C)NC(=O)CCNC(=O)C(C)(C)NC(=O)[C@H](C)NC(=O)[C@@H]3CCCN3C(=O)[C@@](C)(CC)NC(=O)[C@H](Cc3ccccc3)NC(=O)C3CCCN3C(=O)C(C)(C)NC(=O)C3CCCN3C(=O)C(C)(C)NC(C)=O)c(=O)oc2c1` (stereo partly drawn) (Ac-[Aib][ξP][Aib][ξP]F[dIva]PA[Aib][βAla]A[dIva][βAla]L[Aib][βAla]L[Aib][Aib]L[βAla][X14]-X15), for which the GI50 in test [1] was 0.00425 µM; in [2], 0.0028 µM; in test [3], 0.0048 µM; in [4], 0.00354 µM; in [5], 0.00347 µM; in test [6] it was 0.0034 µM. Besides, the GI50 is 0.135 µM in test [7], 0.00491 µM in [8], 0.00305 µM in [9] and 0.00355 µM in test [10]. Also, the TGI was 0.0348 µM in test [1]; 0.00775 µM in [2]; 0.102 µM in test [3]; 0.115 µM in test [4]; 0.014 µM in [5]; 0.0143 µM in test [6]. Moreover, the TGI in test [7] turned out to be 0.278 µM; in [8] it was 0.0202 µM; in test [9], 0.0124 µM; in [10], 0.0426 µM.
